Measurements: patent publication US10787448B2, “Indolizino [3,2-C] quinoline-based fluorescent probe” (SEOUL NATIONAL UNIVERSITY R & DB FOUNDATION, priority 2015, dated 2020)
Entries after “also recorded” stand apart in the source; their conditions may differ.

What was measured:
[1] = target: Human Serum Albumin (HSA) (Homo sapiens, UniProt P02768); experiment: Protein binding by fluorescence change (FRET, Job's plot, titration, quantum yield)
Method: Using a fluorescence spectrophotometer, it was confirmed whether the indolizino[3,2-c]quinoline compound of the present invention binds to a protein. Specifically, among the indolizino[3,2-c]quinoline compounds, 13 types of compounds with high fluorescence in a Tris buffer (pH 7.5) were added to Bovine Serum Albumin (BSA) and Human Serum Albumin (HSA) to observe a fluorescence change.

[2] = Photostability of fluorescence in aqueous solution or ethanol (natural light, blue light); type: physicochemical; conditions: aqueous solution; for stability of fluorescence under irradiation with blue light: blue light for 2 hours; for photostability: fluorescence over time: natural light, up to 6 hours
Method: As a candidate material that can be applied to a fluorescent probe, to confirm how long fluorescence persists in materials with high fluorescence intensity in an aqueous solution among the indolizino[3,2-c]quinoline compounds, photostability according to time in an aqueous solution or ethanol solvent was evaluated as follows.
First, fluorescence of a corresponding material was measured using a cuvette, and the fluorescence per time for the cuvette sample was remeasured until 6 to 7 hours in a natural light state so as to confirm fluorescence stability.
Further, from the above example, when the indolizino[3,2-c]quinoline compounds including the IQ 3, 4, 6 and 8 compounds in which the fluorescence is stably maintained in an aqueous solution for approximately 6 hours are represented by Formula X, some materials in which neither A, B, C nor D ring has a substituent were selected and irradiated with blue light in an aqueous solution, and then a stability experiment was carried out to confirm the maintenance of the fluorescence.

cells = experiment: Co-staining / co-localization with DAPI, MitoTracker or LysoTracker; type: cell-based; conditions: for organelle selectivity by co-localization: MitoTracker or LysoTracker
HeLa cells = experiment: Cell permeability: fluorescence imaging and live cell confocal imaging; type: cell-based; conditions: HeLa cells
Method: HeLa cells were seeded in a 96-well plate and incubated for 24 hours. The cells were treated with the indolizino[3,2-c]quinoline compounds, and incubated at 37° C. under a 5% CO2 condition for 30 minutes. After removal of the medium, the cells were washed with 1×DPBS. The washed cells were fixed with 4% formaldehyde at room temperature for 10 minutes, and washed with 1×DPBS. A cell image was screened using an Operetta HTS imaging system (PerkinElmer).
After HeLa cells were seeded to account for 70 to 80% of the area of a confocal dish (SPL life science) and overnight cultured, the indolizino[3,2-c]quinoline compounds (10 μM) prepared by mixing fresh DMEM after removal of the existing DMEM medium were dispensed, and the cells were incubated for 30 minutes to 1 hour at 37° C. Afterward, if needed, LysoTracker (50 nM) was mixed with DMEM to remove the existing medium and then dispensed to the cells, and the cells were incubated for 30 minutes at 37° C. After incubation, without washing, the cells were examined by a confocal laser microscope (Leica TCS SP8 SMD, Leica, Mannheim, Germany). However, when co-stained with a LysoTracker, the cells were washed with DPBS twice before the microscopy. […]

[3] = Analysis of optical characteristics (absorption, fluorescence emission, quantum yield) in solvents; type: physicochemical; conditions: for quantum yield: in ethanol using coumarin 153 as a standard
Method: Fluorescence emission spectra were obtained at 20° C. using a JASCO FP-6500 spectrofluorometer, a 10 mM stock solution prepared by dissolving an indolizino[3,2-c]quinoline compound in DMSO was diluted in a solvent. […] Absorption spectra were recorded at room temperature using a Perkin Elmer Lamda 20 UV/VIS spectrometer. […]
Further, the compounds (excluding Entry #51-57, etc.) of Formula 1 were subjected to spectrum analyses in various solvents, and the results are shown in Tables 6 and 7, and FIGS. 5C and 5D.

[4] = tested on: DNA oligomers (48 bp) tetO sequences; experiment: Binding to DNA by fluorescence spectrophotometer; conditions: hybridized tetO DNA oligomers added, 1 minute incubation
Method: Using a fluorescence spectrophotometer, it was confirmed whether the indolizino[3,2-c]quinoline compound of the present invention binds to DNA. First, DNA oligomers (48 bp) used in the experiment are tetO sequences, and the base sequences thereof are as follows.
The same molarities of oligomers were mixed while being heated at 95° C. for 5 minutes and cooled to room temperature for 2 hours to hybridize, the fluorescence of each of the indolizino[3,2-c]quinoline compounds of the present invention was measured, a corresponding equivalent of DNA oligomer was added to a cuvette, and then incubated while blocking light for 1 minute to measure fluorescence again.

PDEδ = target: T1, PDEδ (Homo sapiens, UniProt O43924); experiment: Titration using fluorescence polarization; type: binding; conditions: 0.5 μM compound, PDEδ protein from 0 to 32 μM
T1 construct: made in house; host or cells: E. coli
T1 sequence (O43924 whole entry): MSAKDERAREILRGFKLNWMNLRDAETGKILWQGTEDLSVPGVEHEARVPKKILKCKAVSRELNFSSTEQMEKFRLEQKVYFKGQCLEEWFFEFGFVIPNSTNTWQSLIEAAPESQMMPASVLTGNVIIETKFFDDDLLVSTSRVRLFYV
Method: To confirm whether the indolizino[3,2-c]quinoline compound can bind to a specific intracellular protein, in the presence of 0.5 μM of the indolizino[3,2-c]quinoline compound, titration was performed by increasing the concentration of the PDEδ protein from 0 to 32 μM to measure a polarization degree.

Chain of Human Serum Albumin (HSA) (P02768 25-609): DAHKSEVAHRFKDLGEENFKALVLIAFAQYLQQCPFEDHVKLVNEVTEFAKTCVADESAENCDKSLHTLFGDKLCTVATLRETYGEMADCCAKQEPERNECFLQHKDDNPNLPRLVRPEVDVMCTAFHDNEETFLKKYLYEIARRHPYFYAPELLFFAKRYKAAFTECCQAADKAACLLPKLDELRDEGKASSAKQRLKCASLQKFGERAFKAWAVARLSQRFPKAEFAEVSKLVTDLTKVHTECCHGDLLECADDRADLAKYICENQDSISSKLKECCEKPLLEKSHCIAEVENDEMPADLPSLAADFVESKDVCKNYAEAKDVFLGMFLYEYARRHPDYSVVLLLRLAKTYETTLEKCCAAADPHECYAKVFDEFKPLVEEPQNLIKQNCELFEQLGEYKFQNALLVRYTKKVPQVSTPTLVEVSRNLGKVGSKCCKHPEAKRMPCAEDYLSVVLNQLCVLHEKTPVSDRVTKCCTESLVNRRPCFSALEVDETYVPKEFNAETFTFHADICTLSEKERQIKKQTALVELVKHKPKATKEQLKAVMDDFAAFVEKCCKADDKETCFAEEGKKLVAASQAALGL

With `Cc1ccc(-c2nc3ccccc3c3cc4ccccn4c23)cc1` [IQ 3, 6-(p-tolyl)indolizino[3,2-c]quinoline] the “fluorescence change on binding to HSA” value [1] was “increasing fluorescence intensity”, the “stability of fluorescence under irradiation with blue light” value (“stability of fluorescence” below) [2] was “still stably exhibited fluorescence intensity” and the “photostability: fluorescence over time” value [2] was “stably maintained in an aqueous solution up to 6 hours with almost no change”.

With `c1ccc(-c2nc3ccccc3c3cc4ccccn4c23)cc1` [IQ 4, 6-phenylindolizino[3,2-c]quinoline] the “fluorescence change on binding to HSA” value [1] was “increasing fluorescence intensity”, the “stability of fluorescence” value [2] was “still stably exhibited fluorescence intensity” and the “photostability: fluorescence over time” value [2] was “stably maintained in an aqueous solution up to 6 hours with almost no change”.

In the case of `c1ccc(-c2nc3ccccc3c3cc4ccccn4c23)nc1` [IQ 5, 6-(pyridin-2-yl)indolizino[3,2-c]quinoline], the “stability of fluorescence” value [2] is reported as “still stably exhibited fluorescence intensity”.

In the case of `COc1ccc(-c2nc3ccccc3c3cc4ccccn4c23)cc1` [IQ 6, 6-(4-methoxyphenyl)indolizino[3,2-c]quinoline], the “staining pattern compared with conventional dyes” value (cells) is reported as “an aspect similar to RNA select for staining RNA”, the intracellular molecule recognized (HeLa cells) is reported as “recognized intracellular RNA” and the “intracellular organelles in which fluorescence is detected” value (from here on “intracellular organelles”) (HeLa cells) is reported as “intensively distributed in cytoplasmic and nucleolus areas”. For the same molecule, the “solvent-dependent (environment-sensitive) tendency of the emission” value [3] was “solvatochromic effect”, the “peak emission (λmax)” value ([3]; ethanol solvent (EtOH)) was 511 nm and the quantum yield [3] was 0.816. The “stability of fluorescence” value [2] was “still stably exhibited fluorescence intensity” and the “photostability: fluorescence over time” value [2] was “stably maintained in an aqueous solution up to 6 hours with almost no change”.

For `COc1cc(OC)cc(-c2nc3ccccc3c3cc4ccccn4c23)c1` [IQ 7, 6-(3,5-Dimethoxyphenyl)indolizino[3,2-c]quinoline], the “intracellular organelles” value (HeLa cells) was “stained intensively in the nuclear area”, the “fluorescence change on binding to HSA” value [1] was “fluorescence intensity became higher than the fluorescence of the material; also recorded: increasing fluorescence intensity” and the “quantum yield (QY) when bound to HSA” value [1] was 0.43. The “emission after adding 1 equiv. of the compound to HSA” value ([1]; excited at 280 nm) was “approximately 450 nm”, the “emission of the compound” value ([1]; excited at 280 nm) was “approximately 500 nm” and the “FRET with HSA” value ([1]; excited at 280 nm, 1 equiv. of compound) was “fluorescence resonance energy transfer (FRET) phenomenon occurred”. It also gave a Kd ([1]; titration) of 1.89 µM.

In the case of `COc1ccc(-c2nc3ccccc3c3cc4ccccn4c23)cc1OC` [IQ 8, 6-(3,4-dimethoxyphenyl)indolizino[3,2-c]quinoline], the “intracellular organelles” value (HeLa cells) is reported as “stained intensively in the nuclear area”, the “fluorescence change on binding to HSA” value [1] is reported as “increasing fluorescence intensity” and the “photostability: fluorescence over time” value [2] is reported as “stably maintained in an aqueous solution up to 6 hours with almost no change”.

With `c1ccc2c(-c3nc4ccccc4c4cc5ccccn5c34)cccc2c1` [IQ 9, 6-(naphthalen-1-yl)indolizino[3,2-c]quinoline] the “fluorescence (intensity, in words)” value [3] was “strong fluorescence”, the “solvent-dependent (environment-sensitive) tendency of the emission” value [3] was “solvatochromic effect” and the “peak emission (λmax)” value ([3]; aqueous solution (H2O)) was 465.5 nm. For the same molecule, the “peak emission (λmax)” value ([3]; ethanol solvent (EtOH)) was 516 nm, the quantum yield [3] was 0.402 and the “fluorescence change on binding to HSA” value [1] was “increasing fluorescence intensity”.

With `c1ccc2cc(-c3nc4ccccc4c4cc5ccccn5c34)ccc2c1` [IQ 10, 6-(naphthalen-2-yl)indolizino[3,2-c]quinoline] the “fluorescence change on binding to HSA” value [1] was “increasing fluorescence intensity”.

In the case of `COc1cc(OC)cc(-c2nc3ccccc3c3cc4c(C)cccn4c23)c1` [IQ 16, 6-(3,5-dimethoxyphenyl)-11-methylindolizino[3,2-c]quinoline], the “staining pattern compared with conventional dyes” value (cells) is reported as “staining almost similar to DAPI”, the intracellular molecule recognized (HeLa cells) is reported as “recognized DNA” and the “intracellular organelles” value (HeLa cells) is reported as “stained intensively in the nuclear area”. The “fluorescence change on binding to HSA” value [1] was “increasing fluorescence intensity”.

With `COc1ccc(-c2nc3ccccc3c3cc4c(C)cccn4c23)cc1OC` [IQ 17, 6-(3,4-dimethoxyphenyl)-11-methylindolizino[3,2-c]quinoline] the intracellular molecule recognized (HeLa cells) was “recognized DNA”, the “intracellular organelles” value (HeLa cells) was “stained intensively in the nuclear area” and the “fluorescence change on binding to HSA” value [1] was “increasing fluorescence intensity”. For the same molecule, the “quantum yield (QY) when bound to HSA” value [1] was 0.4.

For `Cc1cccn2c1cc1c3ccccc3nc(-c3ccco3)c12` [IQ 18, 6-(furan-2-yl)-11-methylindolizino[3,2-c]quinoline], the “fluorescence change on light irradiation” value (cells) was “increasing fluorescence by receiving light; also recorded: fluorescence is increased”, the “organelle selectivity by co-localization” value (cells) was “selectively stains the mitochondria” and the “Pearson's coefficient” value (cells; co-localization experiment with MitoTracker) was at least 0.8. The “intracellular organelles” value (HeLa cells) was “distributed in the mitochondria”, the “change in fluorescence intensity on addition of DNA oligomer” value (“change in fluorescence intensity” below) [4] was “gradually decreased” and the “shift of maximum emission wavelength on addition of DNA oligomer” value (shortened to “shift of maximum emission wavelength”) [4] was “shorter wavelength”.

For `COc1ccc(-c2nc3ccccc3c3c(Cl)c4ccccn4c23)cc1` [IQ 40, 12-chloro-6-(4-methoxyphenypindolizino[3,2-c]quinoline], the “fluorescence change on binding to HSA” value [1] was “increasing fluorescence intensity”.

With `COc1ccc(-c2nc3ccccc3c3cc4cc(/C=C/c5ccccc5)ccn4c23)cc1` [IQ-B19, (E)-6-(4-methoxyphenyl)-10-styrylindolizino[3,2-c]quinoline] the “organelle selectivity by co-localization” value (cells) was “selectively present in the lysosome” and the “fluorescence (intensity, in words)” value [3] was “high fluorescence in other solvents as well as an aqueous solution”.

For `CCN(CC)c1ccc(-c2nc3ccccc3c3cc4ccccn4c23)cc1` [compound 37], the “shift of maximum emission wavelength” value [4] was “wavelength to longer wavelength”, the “quantum yield (Φ)” value ([3]; DW, standard Rhodamine 6G) was 0.001 and the “quantum yield (Φ)” value ([3]; EtOH, standard Coumarin 153) was 0.324.

With `COc1ccc(-c2nc3ccccc3c3c(Cl)c4ccccn4c23)cc1` [compound 40] the “change in fluorescence intensity” value [4] was “Increase in fluorescence intensity”, the “quantum yield (Φ)” value ([3]; DW, standard Rhodamine 6G) was 0.142 and the “quantum yield (Φ)” value ([3]; EtOH, standard Coumarin 153) was 0.624.

Molecule `c1coc(-c2nc3ccccc3c3cc4ccccn4c23)c1` [compound 42] has a Kd (PDEδ) of 0.425 µM.

In the case of `COC(=O)c1c2c3ccccc3nc(-c3cccs3)c2n2ccccc12` [compound 44], the “shift of maximum emission wavelength” value [4] is reported as “wavelength to shorter wavelength”, the “quantum yield (Φ)” value ([3]; DW, standard Rhodamine 6G) is reported as 0.010 and the “quantum yield (Φ)” value ([3]; EtOH, standard Coumarin 153) is reported as 0.050.

With `COc1ccc(-c2nc3ccccc3c3c(-c4ccc(F)cc4)c4ccccn4c23)cc1` [compound 45] the “change in fluorescence intensity” value [4] was “No change in fluorescence intensity”, the “quantum yield (Φ)” value ([3]; DW, standard Rhodamine 6G) was 0.033 and the “quantum yield (Φ)” value ([3]; EtOH, standard Coumarin 153) was 0.557.

In the case of `COc1ccc(-c2nc3ccccc3c3c(-c4ccc(Cl)cc4)c4ccccn4c23)cc1` [compound 46], the “change in fluorescence intensity” value [4] is reported as “No change in fluorescence intensity”, the “quantum yield (Φ)” value ([3]; DW, standard Rhodamine 6G) is reported as 0.039 and the “quantum yield (Φ)” value ([3]; EtOH, standard Coumarin 153) is reported as 0.604.
